Reference: patent US8648066B2 (Exelixis, Inc., priority 2009, dated 2014)

Target: mTOR/GbL/Raptor (mTORC1) (Homo sapiens, UniProt P42345)
Experiment: mTOR/GbL/Raptor (mTORC1) ELISA assay
Type: biochemical
Conditions: phosphorylation of 4E-BP1; 0.2 nM mTORC1, 10 μM ATP; read-out: IC50 in this assay (mTORC1 ELISA)
Procedure, shortened: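 ELISA read-out: phospho-4E-BP1 captured on Ni-chelate plates and detected with anti-phospho antibody plus HRP-anti-IgG luminescence. The kinase step ran 120 min at ambient temperature with 0.2 nM human mTORC1, 10 µM ATP, 50 nM His-4E-BP1, 10 mM MnCl2, pH 7.2 HEPES.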

Row | SMILES | IC50
1 | CCNc1nc2ccc(-c3ccc4c(c3)CN(c3cc(Nc5cccc(OC)c5)ncn3)CCO4)cc2[nH]1 [Example 284, N-ethyl-6-[4-(6-{[3-(methyloxy)phenyl]amino}pyrimidin-4-yl)-2,3,4,5-tetrahydro-1,4-benzoxazepin-7-yl]-1H-benzimidazol-2-amine] | 250 to 1000 nM
2 | COc1ccc2c(N3CCOc4ccc(-c5ccc6nc(C)[nH]c6c5)cc4C3)ncnc2c1OC [Example 34, 4-[7,8-bis(methyloxy)quinazolin-4-yl]-7-(2-methyl-1H-benzimidazol-6-yl)-2,3,4,5-tetrahydro-1,4-benzoxazepine] | 50 to 250 nM
3 | CC1(C)CCc2ncnc(N3CCOc4ccc(-c5ccc6[nH]c(C(F)F)nc6c5)cc4C3)c2C1 [Example 265] | ≤ 10 nM
4 | CN(C)Cc1nc2c(c(N3CCOc4ccc(-c5cnc6nc(C7CC7)[nH]c6c5)cc4C3)n1)CC(C)(C)CC2 [Example 339, 1-{4-[7-(2-cyclopropyl-1H-imidazo[4,5-b]pyridin-6-yl)-2,3-dihydro-1,4-benzoxazepin-4(5H)-yl]-6,6-dimethyl-5,6,7,8-tetrahydroquinazolin-2-yl}-N,N-dimethylmethanamine] | ≤ 10 nM
5 | CC1(C)CCc2ncnc(N3CCOc4ccc(-c5cnc(N)c(S(=O)(=O)NCCF)c5)cc4C3)c2C1 [Example 366, 2-amino-5-[4-(6,6-dimethyl-5,6,7,8-tetrahydroquinazolin-4-yl)-2,3,4,5-tetrahydro-1,4-benzoxazepin-7-yl]-N-(2-fluoroethyl)pyridine-3-sulfonamide] | 10 to 50 nM
6 | Cc1nc2ccc(-c3ccc4c(c3)CN(c3ncnc5cc(C(F)(F)F)ccc35)CCO4)cc2[nH]1 [Example 36, 7-(2-methyl-1H-benzimidazol-6-yl)-4-[7-(trifluoromethyl)quinazolin-4-yl]-2,3,4,5-tetrahydro-1,4-benzoxazepine] | 50 to 250 nM
7 | Cc1nc(C)c(Cc2ccc(F)cc2)c(N2CCOc3ccc(-c4ccc5nc(C)[nH]c5c4)cc3C2)n1 [Example 97, 4-{5-[(4-fluorrophenyl)methyl]-2,6-dimethylpyrimidin-4-yl}-7-(2-methyl-1H-benzimidazol-6-yl)-2,3,4,5-tetrahydro-1,4-benzoxazepine] | ≤ 10 nM
8 | COC(=O)Nc1nc2ccc(-c3ccc4c(c3)CN(c3ccncn3)CCO4)cc2[nH]1 [Example 107, methyl-6[(4-pyrimidin-4-yl-2,3,4,5-tetrahydro-1,4-benzoxazepin-7-yl)-1H-benzimidazol-2-yl]carbamate] | ≥ 2000 nM
9 | COC(=O)Nc1nc2ccc(-c3ccc4c(c3)CN(c3nc(C)nc5ccccc35)CCO4)cc2[nH]1 [Example 108, methyl {6-[4-(2-methylquinazolin-4-yl)-2,3,4,5-tetrahydro-1,4-benzoxazepin-7-yl]-1H-benzimidazol-2-yl}carbamate] | 250 to 1000 nM
10 | CCC1CCc2ncnc(N3CCOc4ccc(-c5ccc6nc(C)[nH]c6c5)cc4C3)c2C1 (stereo not drawn) [Example 68, 4-(6-ethyl-5,6,7,8-tetrahydroquinazolin-4-yl)-7-(2-methyl-1H-benzimidazol-6-yl)-2,3,4,5-tetrahydro-1,4-benzoxazepine] | 10 to 50 nM
11 | CC1(C)CCc2ncnc(N3CCOc4ccc(-c5cnc(N)c(S(=O)(=O)NCCO)c5)cc4C3)c2C1 [Example 371, 2-amino-5-[4-(6,6-dimethyl-5,6,7,8-tetrahydroquinazolin-4-yl)-2,3,4,5-tetrahydro-1,4-benzoxazepin-7-yl]-N-(2-hydroxyethyl)pyridine-3-sulfonamide] | ≤ 10 nM
12 | COC(=O)Nc1nc2ccc(-c3ccc4c(c3)CN(c3ncnc5ccc(OC)cc35)CCO4)cc2[nH]1 [Example 112, methyl (6-{4-[6-(methyloxy)quinazolin-4-yl]-2,3,4,5-tetrahydro-1,4-benzoxazepin-7-yl}-1H-benzimidazol-2-yl)carbamate] | 250 to 1000 nM
13 | CC1(C)CCc2ncnc(N3CCOc4ccc(-c5cnc(Cl)c(OC(F)F)c5)cc4C3)c2C1 [Example 573, 7-{6-chloro-5-[(difluoromethyl)oxy]pyridin-3-yl}-4-(6,6-dimethyl-5,6,7,8-tetrahydroquinazolin-4-yl)-2,3,4,5-tetrahydro-1,4-benzoxazepine] | 250 to 1000 nM
14 | Cc1nc2ccc(-c3ccc4c(c3)CN(c3ncnc(Nc5ccccc5)c3C)CCO4)cc2[nH]1 [Example 77, 5-methyl-6-[7-(2-methyl-1H-benzimidazol-6-yl)-2,3-dihydro-1,4-benzoxazepine-4(5H)-yl]-N-phenylpyrimidin-4-amine] | 1000 to 2000 nM
15 | CC1(C)CCc2ncnc(N3CCOc4ccc(-c5cnc(N)c(S(=O)(=O)NCC6CCCCN6)c5)cc4C3)c2C1 (stereo not drawn) [Example 376, 2-amino-5-[4-(6,6-dimethyl-5,6,7,8-tetrahydroquinazolin-4-yl)-2,3,4,5-tetrahydro-1,4-benzoxazepin-7-yl]-N-(piperidin-2-ylmethyl)pyridine-3-sulfonamide] | 10 to 50 nM
16 | CCNc1nc2ccc(-c3ccc4c(c3)CN(c3nc(NC)nc5ccccc35)CCO4)cc2[nH]1 [Example 269, 4-{7-[2-(ethylamino)-1H-benzimidazol-6-yl]-2,3-dihydro-1,4-benzoxazepin-4(5H)-yl}-N-methylquinazolin-2-amine] | 250 to 1000 nM
17 | Cc1nc2ccc(-c3ccc4c(c3)CN(c3ncnc5c3CC(C)C5)CCO4)cc2[nH]1 (stereo not drawn) [Example 76, 7-(2-methyl-1H-benzimidazol-6-yl)-4-(6-methyl-6,7-dihydro-5H-cyclopenta[d]pyrimidin-4-yl)-2,3,4,5-tetrahydro-1,4-benzoxazepine] | 50 to 250 nM
18 | CC(C)(CO)CNS(=O)(=O)c1cc(-c2ccc3c(c2)CN(c2ncnc4c2CC(C)(C)CC4)CCO3)cnc1N [Example 374, 2-amino-5-[4-(6,6-dimethyl-5,6,7,8-tetrahydroquinazolin-4-yl)-2,3,4,5-tetrahydro-1,4-benzoxazepin-7-yl]-N-(3-hydroxy-2,2-dimethylpropyl)pyridine-3-sulfonamide] | 50 to 250 nM
19 | Cc1ncnc(N2CCOc3ccc(-c4ccc5nc(N)[nH]c5c4)cc3C2)c1Cc1ccc(F)cc1 [Example 189, 6-(4-{5-[(4-fluorophenyl)methyl]-6-methylpyrimidin-4-yl}-2,3,4,5-tetrahydro-1,4-benzoxazepin-7-yl)-1H-benzimidazol-2-amine] | ≤ 10 nM

More lines, now with the values ahead:

Row | IC50 | SMILES
20 | 250 to 1000 nM | COc1ccc2c(N3CCOc4ccc(-c5cnc(N)c(S(=O)(=O)N6CC[C@H](N)C6)c5)cc4C3)ncnc2c1 [Example 454, 3-{[(3S)-3-aminopyrrolidin-1-yl]sulfonyl}-5-{4-[7-(methyloxy)quinazolin-4-yl]-2,3,4,5-tetrahydro-1,4-benzoxazepin-7-yl}pyridin-2-amine]
21 | 10 to 50 nM | Cc1nc2ncc(-c3ccc4c(c3)CN(c3nc(CNCC(C)C)nc5c3CC(C)(C)CC5)CCO4)cc2[nH]1 [Example 594, N-({6,6-dimethyl-4-[7-(2-methyl-1H-imidazo[4,5-b]pyridin-6-yl)-2,3-dihydro-1,4-benzoxazepin-4(5H)-yl]-5,6,7,8-tetrahydroquinazolin-2-yl}methyl)-2-methylpropan-1-amine]
22 | 10 to 50 nM | CC[C@H]1CCc2c(ncnc2N2CCOc3ccc(-c4cnc(N)c(S(=O)(=O)N5CC[C@@H](N)C5)c4)cc3C2)C1 [Example 451, 3-{[(3R)-3-aminopyrrolidin-1-yl]sulfonyl}-5-{4-[(7S)-7-ethyl-5,6,7,8-tetrahydroquinazolin-4-yl]-2,3,4,5-tetrahydro-1,4-benzoxazepin-7-yl}pyridin-2-amine]
23 | 50 to 250 nM | CC1(C)CCc2ncnc(N3CCOc4ccc(-c5cnc(N)c(S(=O)(=O)N6CC(F)(F)C6)c5)cc4C3)c2C1 [Example 438, 3-[(3,3-difluoroazetidin-1-yl)sulfonyl]-5-[4-(6,6-dimethyl-5,6,7,8-tetrahydroquinazolin-4-yl)-2,3,4,5-tetrahydro-1,4-benzoxazepin-7-yl]pyridin-2-amine]
24 | 250 to 1000 nM | COc1ccc2c(N3CCOc4ccc(-c5cnc6sc(N)nc6c5)cc4C3)nc(C)nc2c1 [Example 661, 6-{4-[2-methyl-7-(methyloxy)quinazolin-4-yl]-2,3,4,5-tetrahydro-1,4-benzoxazepin-7-yl}[1,3]thiazolo[5,4-b]pyridin-2-amine]
25 | ≥ 2000 nM | COc1ccc2c(N3CCOc4ccc(-c5ccc6[nH]cnc6c5)cc4C3)nc(CN(C)C)nc2c1 [Example 658, 1-{4-[7-(1H-benzimidazol-5-yl)-2,3-dihydro-1,4-benzoxazepin-4(5H)-yl]-7-(methyloxy)quinazolin-2-yl}-N,N-dimethylmethanamine]
26 | ≥ 2000 nM | c1cc(N2CCOc3ccc(-c4ccc5nc[nH]c5c4)cc3C2)ncn1 [Example 541, 7-(1H-benzimidazol-6-yl)-4-pyrimidin-4-yl-2,3,4,5-tetrahydro-1,4-benzoxazepine]
27 | 50 to 250 nM | CC1(C)CCc2ncnc(N3CCOc4ccc(-c5cnc(N)c(S(=O)(=O)NC6CCNCC6)c5)cc4C3)c2C1 [Example 398]
28 | 250 to 1000 nM | CNc1ncnc(N2CCOc3ccc(-c4cnc5nc(C)[nH]c5c4)cc3C2)c1C [Example 610, N,5-dimethyl-6-[7-(2-methyl-1H-imidazo[4,5-b]pyridin-6-yl)-2,3-dihydro-1,4-benzoxazepin-4(5H)-yl]pyrimidin-4-amine]
29 | 10 to 50 nM | Cc1nc2cc(-c3ccc4c(c3)CN(c3nc(NCCN(C)C)nc(C)c3Cc3ccc(F)cc3)CCO4)ccc2[nH]1 [Example 683, N′-{5-[(4-fluorophenyl)methyl]-4-methyl-6-[7-(2-methyl-1H-benzimidazol-5-yl)-2,3-dihydro-1,4-benzoxazepin-4(5H)-yl]pyrimidin-2-yl}-N,N-dimethylethane-1,2-diamine]
30 | 250 to 1000 nM | CC1(C)CCc2ncnc(N3CCOc4ccc(-c5cncc(NS(C)(=O)=O)c5)cc4C3)c2C1 [Example 634, N-{5-[4-(6,6-dimethyl-5,6,7,8-tetrahydroquinazolin-4-yl)-2,3,4,5-tetrahydro-1,4-benzoxazepin-7-yl]pyridin-3-yl}methanesulfonamide]
